Test [1] concerns autophagy flux (LC3-II) in RBE cell line. Put plainly: Autophagy flux, LC3-II immunoblot with/without Bafilomycin, RBE cell line. Type of test: cell-based. The note with it: 24 hours of treatment. As to the method: The capacity of compound 2-2 to modulate the cellular autophagy processes was also evaluated in the intrahepatic cholangiocarcinoma cell line RBE.
The RBE cell line was maintained in RPMI (Roswell Park Memorial Institute) 1640 (Cat #L0498-500, Dutscher) containing 1% penicillin-streptomycin (Cat #P06-07100, Dutscher) and 10% FBS (Cat #SV30160.03C, Dutscher). RBE Cells line were cultured at 37° C. with 5% CO2.
The day before the experiment, 6-well plates with 125,000 cells in 1.8 mL of medium per well were prepared.
Compound 2-2 was dissolved with filtrated DMSO to make a 10 mM stock solution and serial working solutions (10× solutions) at 9 μM, 18 μM and 36 μM were prepared with the diluent (=culture medium with 0.12% DMSO) to maintain a constant percentage of DMSO. Bafilomycin [CAS 88899-55-2] (Cat #B1793-10UG, Sigma) was dissolved with DMSO to make a 160.6 μM stock solution and a working solution (200× solution) was prepared with the culture medium at 20.1 μM. A “Baf diluent” solution corresponding to the dilution of DMSO in the Bafilomycin 200× solution (culture medium with 12.5% DMSO) is also prepared. […]
After 24 hours of cell line treatment, the medium was removed from each well. […] Total protein concentration was assessed using the BCA reagent (Cat #23227, ThermoFischer) and cellular lysates were stored at −80° C. until western-blot analysis. […]
In general terms: In western blotting, separated proteins are transferred to a membrane and probed.

The test system of test [2] is diethyl nitrosamine (DEN) cirrhotic rat model of liver fibrosis. Put plainly: DEN induced cirrhosis in rats, study 2: Sirius red quantification of liver fibrosis. Type of test: in vivo. As to the method: A second in vivo experiment, with the same diethyl nitrosamine (DEN) cirrhotic rat animal model of liver fibrosis, was performed including compound 2-2 (base form of compound 2-3) with discontinued oral dosing schedule and compound 5-3 with daily oral exposure. Compounds 2-2 and 5-3 were administered p.o. by gavage (oral gavage) once daily during 7 weeks.
Rats were treated with DEN for 13 weeks (intra-peritoneal injections (i.p.) of 50 mg/kg/week) and then treated according to the Table 10 dosage schedule during 7 weeks. At the end of the study, all animals were sacrificed using CO2 and rat livers were collected for analysis. The quantification of the liver fibrotic tissue was evaluated by Sirius red staining of rat liver sections.
Group 1 contained 6 animals which were daily dosed (q.d.) by oral gavage (per os, p.o.) with the vehicle during 7 weeks.
Group 2 contained 8 animals and the corresponding animals were daily dosed (q.d.) by oral gavage (per os, p.o.) with compound 2-2 during 4 weeks at 20 mg/kg/day and then during 3 weeks at 20 mg/kg every 2 days (q.o.d.: quaque altera die, one day treated, on day untreated).
Group 3 contained 8 animals and the corresponding animals were daily dosed (q.d.) by oral gavage (per os, p.o.) with compound 2-2 during 3 weeks at 20 mg/kg/day, then 2 weeks of treatment free period, and were then daily dosed (q.d.) by oral gavage (per os, p.o.) with compound 2-2 during 2 weeks at 20 mg/kg/day.
Group 4 contained 8 animals and the corresponding animals were daily dosed (q.d.) by oral gavage (per os, p.o.) with compound 5-3 during 4 weeks at 20 mg/kg/day, and were then daily dosed (q.d.) by oral gavage (per os, p.o.) with compound 5-3 during 3 weeks at 15 mg/kg/day.
Compound 2-2 and 5-3 were formulated in water for injection acidified with hydrochloric acid to pH 4.

For `CC(C)(C)NC1CCN(c2cc(NCc3ccc(Cl)cc3)nc3ccccc23)CC1` [2-2, 2-(4-chlorobenzylamino)-4-(4-tert-butylaminopiperidin-1-yl)-quinoline], in test [1], the “accumulation of the LC3-II form” value is “significantly induced a dose-dependent accumulation of the LC3-II form” and the “autophagic flux (LC3-II Baf+/Baf− ratio)” value is “induced an inhibition of the autophagic flux”. The “reduction of the level of collagen fibers deposition (Sirius red) compared to the control group” value in test [2] (group 2 (20 qd/qod): 20 mg/kg p.o. q.d. 4 weeks then q.o.d. 3 weeks, after 13 weeks DEN, p=0.04) came to 23%. Further, the “reduction of the level of collagen fibers deposition (Sirius red) compared to the control group” value in test [2] (group 3 (20 3WON/2WOFF/2WON): 20 mg/kg p.o. q.d. 3 weeks, 2 weeks off, q.d. 2 weeks, p=0.01) is on record as 29%.

The values are drawn from US11261189B2, “Substituted 2,4 diamino-quinoline as new medicament for fibrosis, autophagy and cathepsins B (CTSB), L (CTSL) and D (CTSD) related diseases” (Genoscience Pharma, priority 2018, dated 2022).
